Laboratory results published in ChEMBL document CHEMBL5604063, “ASAP - DENV-2 NS2B-NS3 protease fluorescence dose response” (2024).
Values joined by “and” are separate entries in the source; they are usually repeats but may differ in a detail not shown here. Equal values may be shown once.

Biological target: Genome polyprotein (dengue virus type 2, UniProt P29990)
Assay type: functional, Thailand/16681/1984

Sequence of Genome polyprotein (P29990 1346-1475 limits assumed): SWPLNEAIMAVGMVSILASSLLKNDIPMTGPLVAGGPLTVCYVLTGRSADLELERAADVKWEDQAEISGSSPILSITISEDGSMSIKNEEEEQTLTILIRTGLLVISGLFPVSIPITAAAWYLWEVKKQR
Sequence of Genome polyprotein (P29990 1476-2093 limits assumed): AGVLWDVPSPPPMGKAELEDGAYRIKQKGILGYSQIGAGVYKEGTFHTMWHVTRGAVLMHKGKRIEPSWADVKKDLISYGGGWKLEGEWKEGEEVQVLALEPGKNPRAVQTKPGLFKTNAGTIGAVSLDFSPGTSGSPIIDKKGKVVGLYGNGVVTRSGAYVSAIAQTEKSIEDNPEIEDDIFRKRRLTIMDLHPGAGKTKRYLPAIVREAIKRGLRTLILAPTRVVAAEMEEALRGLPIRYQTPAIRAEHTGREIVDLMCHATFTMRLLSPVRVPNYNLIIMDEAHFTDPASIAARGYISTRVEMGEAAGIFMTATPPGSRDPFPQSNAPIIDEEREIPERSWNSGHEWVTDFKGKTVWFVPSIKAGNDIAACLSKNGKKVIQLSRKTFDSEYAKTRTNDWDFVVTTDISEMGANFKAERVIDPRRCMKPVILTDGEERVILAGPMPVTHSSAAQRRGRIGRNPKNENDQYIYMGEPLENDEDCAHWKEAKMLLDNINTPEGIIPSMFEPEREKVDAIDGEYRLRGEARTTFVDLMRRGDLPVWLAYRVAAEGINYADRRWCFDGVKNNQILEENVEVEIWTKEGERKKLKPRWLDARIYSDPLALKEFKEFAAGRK

SMILES	IC50
Cc1cc(C(=O)Nc2ccc3c(c2)CNC3)c2cn[nH]c2c1	> 99.5 µM
Cc1ccc(S(=O)(=O)CNC(=O)[C@H](Nc2ccc3c(c2)CNC3)c2cc(Cl)cc3[nH]ncc23)cc1	> 99.5 µM
CC(C)(C)c1ccc(Cl)cc1C(=O)Nc1ccc2c(c1)CNC2	> 99.5 µM
Cc1n[nH]c2nc(Cl)cc(C(=O)Nc3ccc4c(c3)CNC4)c12	> 99.5 µM
O=C(Cc1cccc2[nH]ncc12)Nc1ccc2c(c1)CNC2	> 99.5 µM
C=C1C[C@H](c2cccc(CN)c2)[C@@H](c2cc(Cl)cc(NC(=O)OCc3ccccc3)c2)C1	> 99.5 µM
O=C(Nc1ccc2c(c1)CNC2)c1cc(Cl)ccc1SC1CCCC1	> 99.5 µM
O=C(Nc1ccc2c(c1)CNC2)c1cc(F)cc2[nH]nnc12	> 99.5 µM
Clc1ccc2ncn(Cc3ccc4c(c3)CNC4)c2c1	> 99.5 µM
Clc1ccc2c(c1)ncn2Cc1ccc(-c2nn[nH]n2)cc1	> 99.5 µM
O=C(Nc1ccc2c(c1)CNC2)c1ncc(Br)s1	> 99.5 µM
O=C(Nc1ccc2c(c1)CNC2)c1ncnc2ccsc12	> 99.5 µM
COC(=O)CNC(=O)[C@H](Nc1ccc2c(c1)CNC2)c1cc(Cl)cc(C2CC2)c1	> 99.5 µM
Cc1c(C(=O)Nc2cc(CCCN)ccn2)cc(-c2ccccc2)n1C	> 99.5 µM
O=C(Nc1ccc2c(c1)CNC2)N1C[C@H](C(F)F)C2(CC2)C1	> 99.5 µM
O=C(c1cc(Cl)cc2[nH]ncc12)N1CCC[C@H]1C1CCNCC1	> 99.5 µM
O=C1CCc2cc(NC(=O)c3cc(Cl)cc4[nH]ncc34)ccc2N1	> 99.5 µM
Cc1c(C(=O)Nc2cc(CCCN)ccn2)cc(C#N)n1C	> 99.5 µM
CC(C)NC(=O)[C@H](Nc1ccc2c(c1)C(=O)OC2)c1cc(Cl)cc2[nH]ncc12	> 99.5 µM
O=Cc1ccc(N2CCC(C(=O)N3CCN(c4ccc([N+](=O)[O-])cc4C(F)(F)F)CC3)CC2)cc1	> 99.9 µM
O=Cc1ccc(N2CCC(C(=O)Nc3cccc(Br)n3)CC2)cc1	14.4 µM
O=Cc1ccc(N2CCC(C(=O)NCCc3ccc(O)c(O)c3)CC2)cc1	35 µM

SMILES	IC50
CN1[C@@H]2CCC[C@H]1C[C@@H](NC(=O)C1CCN(c3ccc(C=O)cc3)CC1)C2	98.7 µM
CC(C)NC(=O)[C@H](Nc1ccc2c(c1)CNC2)c1cc(Cl)cc2[nH]c(-c3ccccc3)nc12	10.2 µM and 4.1 µM and 35.8 µM
O=C1OCc2ccc(NC(=O)[C@H]3CCNC34CCCC4)cc21	> 99.5 µM
C=CC[C@H](Nc1cc([C@H]2CCOC2)ccn1)c1cc(C2CC2)n(C)n1	> 99.5 µM
O=C(Nc1ccc2c(c1)CNC2)c1cc(Cl)cc2nn[nH]c12	> 99.5 µM
O=C(Nc1ccc2c(c1)CNC2)c1cc(F)cc(C=C2CCS(=O)(=O)CC2)c1	> 99.5 µM
NCCCOc1cc(-c2ccc(N)nc2)cc2c1COB2O	> 99.5 µM
O=Cc1ccc(N2CCC(C(=O)N3CCC(N4CCc5ccccc5C4)CC3)CC2)cc1	> 99.9 µM
Cc1c(C(=O)Nc2ccc3c(c2)C(=O)N(C)C3)cc(C2CC2)n1C	> 99.5 µM
Cc1cc(NC(=O)c2cc(C3CC3)n(C)c2C)ccc1N1CCCC1=O	> 99.5 µM
O=C(Nc1cc(Cl)cc(C(=O)Nc2ccc3c(c2)C[C@H](F)C3)c1)OCc1ccccc1	> 99.5 µM
Cc1c(C(=O)Nc2ccc3c(c2)CCCC(=O)N3)cc(C2CC2)n1C	> 99.5 µM
CS(=O)(=O)Nc1cccc(C(=O)Nc2ccc3c(c2)CNC3)c1	> 99.5 µM
O=C(Nc1ccc2c(c1)CNC2)c1cc(F)cc(C2=CCCOC2)c1	> 99.5 µM
O=C(O)c1cc2cc(-c3nccc(C(F)F)n3)ccc2[nH]1	> 99.5 µM
NC[C@@H]1CN(c2cc(-c3ccc(N)nc3)cc3c2COB3O)C(=O)O1	> 99.5 µM
Cc1c(C(=O)Nc2cccc(-c3ccc(=O)[nH]n3)c2)cc(C2CC2)n1C	> 99.5 µM
COCc1cc(Cl)cc(S(=O)(=O)Nc2cccc(-c3nnn[nH]3)c2)c1	> 99.5 µM
COC(=O)[C@H](C)n1cc2c(C(=O)Nc3ccc4c(c3)CNC4)cc(Cl)cc2n1	> 99.5 µM
CSC1(C(=O)N[C@H](CC(=O)Nc2cccc(CN)c2)c2ccc(OCc3ccccc3)c(Br)c2)CCC1	34.9 µM
O=Cc1ccc(N2CCC(C(=O)NC[C@H](O)c3ccc(O)c(O)c3)CC2)cc1	33.4 µM
C=CC[C@H]1NCc2cc(NC(=O)c3ccc4c(c3)CC(=O)N4)ccc21	> 99.5 µM

SMILES	IC50
CC(C)c1nn(C)cc1-c1cc(F)cc(C(=O)Nc2ccc3c(c2)CNC3)c1	> 99.5 µM
CC(C)[C@@H]1C(=O)O[C@H]1C(=O)O	> 99.5 µM
Brc1cc(CNc2ccc3c(c2)CNC3)c2cc[nH]c2c1	> 99.5 µM
O=Cc1ccc(N2CCC(C(=O)NCc3cccc(-c4ccccc4)c3)CC2)cc1	53.3 µM
COc1cc(C(=O)Nc2ccc3c(c2)CNC3)cc2ccoc12	> 99.5 µM
O=C1OCc2ccc(NC(=O)c3cc(F)cc4[nH]ncc34)cc21	> 99.5 µM
O=Cc1ccc(N2CCC(C(=O)N3CCC(CCN4CCCC4)CC3)CC2)cc1	> 99.9 µM
O=Cc1ccc(N2CCC(C(=O)NCCc3ccccc3[N+](=O)[O-])CC2)cc1	93.9 µM
CCN1CCN(c2ccc(NC(=O)C3CCN(c4ccc(C=O)cc4)CC3)cc2)CC1	73 µM
CS(=O)(=O)c1ccc(N2CCN(C(=O)C3CCN(c4ccc(C=O)cc4)CC3)CC2)c([N+](=O)[O-])c1	85.7 µM
CCSc1ccc(Cl)cc1C(=O)Nc1ccc2c(c1)CNC2	> 99.5 µM
Cc1c(CN)c(C(=O)Nc2cc(-c3cccnc3)ccn2)nn1C	> 99.5 µM
O=Cc1ccc(N2CCC(C(=O)NCCN3CCc4ccccc43)CC2)cc1	20.3 µM
NCc1ccc(COc2ccc(-c3ccc(N)nc3)c3c2OB(O)CC3)cc1	> 99.5 µM
Cc1cccc(-c2nc3c(C(=O)Nc4ccc5c(c4)CNC5)cc(F)cc3[nH]2)c1	8.87 µM and 6.46 µM
Cc1ccccc1-c1nc2c(C(=O)Nc3ccc4c(c3)CNC4)cc(F)cc2[nH]1	3.46 µM and 3.38 µM
C[C@H]1c2cc(O)c(O)cc2CCN1C(=O)C1CCN(c2ccc(C=O)cc2)CC1	80.5 µM
O=Cc1ccc(N2CCC(C(=O)NC[C@@H]3CCCN4CCCC[C@H]34)CC2)cc1	> 99.9 µM
O=C(Nc1cc(-c2cccnc2)ccn1)c1nc(Br)n2c1CNCC2	> 99.5 µM
CCNC(=O)Nc1cc(Cl)cc(C(=O)Nc2cccc(C3CCNCC3)c2)c1	> 99.5 µM
O=Cc1ccc(N2CCC(C(=O)Nc3ccc(Br)cc3O)CC2)cc1	33.9 µM
NCCCOc1cc2c(c(-c3ccc(N)nc3)c1)CCB(O)O2	> 99.5 µM

SMILES	IC50
CC(C)[C@H](N)P(=O)(Oc1ccc(F)cc1)Oc1ccc(F)cc1	> 99.5 µM
O=Cc1ccc(N2CCC(C(=O)NCCC3CCN(Cc4ccccc4)CC3)CC2)cc1	99.7 µM
O=C(Nc1ccc2c(c1)CNC2)c1cc(F)cc2[nH]c(-c3cnccc3O)nc12	69.7 µM
O=C(Nc1ccc2c(c1)CNC2)c1cc(Cl)cc2c1cnn2C[C@H]1CCCO1	> 99.5 µM
C[C@]1(O)C(=O)Nc2cc(F)cc(C(=O)Nc3ccc4c(c3)CNC4)c21	> 99.5 µM
O=C(NCC1CCCCC1)[C@H]1CCCN1C(=O)Nc1ccc2c(c1)CNC2	> 99.5 µM
O=C1Cc2c(cc(F)cc2C(=O)Nc2cc([C@H]3CCOC3)ccn2)N1	> 99.5 µM
Cc1c(C(=O)Nc2ccc3c(c2)CS(=O)(=O)C3)cc(C2CC2)n1C	> 99.5 µM
c1cc(C2CCN(Cc3c[nH]c4ccccc34)CC2)c2ccncc2c1	> 99.5 µM
N#C[C@H](Nc1ccc2c(c1)CNC2)c1cc(Cl)cc2c1OCC2	> 99.5 µM
O=C(Nc1cc(-c2cccnc2)ccn1)c1cc2n(c1)CCC2	> 99.5 µM
CC1CCN(CCCCNC(=O)C2CCN(c3ccc(C=O)cc3)CC2)CC1	> 99.9 µM
COc1ccc(-n2nnnc2SC(F)F)cc1	> 99.5 µM
CCc1cc(C(=O)Nc2ccc3c(c2)CNC3)cc2cn[nH]c12	> 99.5 µM
O=C(Nc1ccc2c(c1)CNC2)c1cc(Cl)cc(C(F)(F)F)n1	22.5 µM
Cc1ccc2cccc(NC(=O)C3CCN(c4ccc(C=O)cc4)CC3)c2n1	22.4 µM
O=C(Nc1ccc2c(c1)CNC2)c1cccc2c1OCO2	> 99.5 µM
O=Cc1ccc(N2CCC(C(=O)NCC(=O)c3ccc(O)cc3)CC2)cc1	52.9 µM
O=C(Nc1ccc2c(c1)CNC2)c1cccc2nc(C(F)(F)F)[nH]c12	> 99.5 µM
Cc1c(C(=O)Nc2cc(-c3cccnc3)ccn2)c2ccccc2n1C	> 99.5 µM
C#C[C@H](Nc1ccc2c(c1)CNC2)c1cccc2c1CCNC2=O	> 99.5 µM
O=C(Nc1ccc2c(c1)CNC2)c1cc(F)c2[nH]nnc2c1	> 99.5 µM

SMILES	IC50
Cc1c(C(=O)Nc2cccc(-c3cncnc3O)c2)cc(C2CC2)n1C	> 99.5 µM
CC(=O)Nc1cccc(CNC(=O)C2CCN(c3ccc(C=O)cc3)CC2)c1	98.1 µM
O=C(Nc1cc(Cl)cc(C(=O)N[C@]2(c3nnn[nH]3)CCOC2)c1)OCc1ccccc1	> 99.5 µM
O=Cc1ccc(N2CCC(C(=O)N3CCN(c4cccc(O)c4)CC3)CC2)cc1	78.2 µM
c1cc(Cc2noc(CCc3cscn3)n2)no1	> 99.5 µM
O=C1CC[C@H]2[C@H](CCN2C(=O)c2ccc3c(c2)CNC3)N1	> 99.5 µM
CCn1c(=O)c(N2CC[C@H](CO)C2)nc2ccc(C(=O)OC)cc21	82.9 µM
COCCNC(=O)[C@H](Nc1cccc([C@H]2CCOC2)c1)c1cc(Br)cc2[nH]ccc12	> 99.5 µM
O=Cc1ccc(N2CCC(C(=O)Nc3ncc(Br)cc3O)CC2)cc1	19.1 µM
NC(=O)C1(N2CCCCC2)CCN(C(=O)C2CCN(c3ccc(C=O)cc3)CC2)CC1	> 24.9 µM
CCc1cc(C(=O)Nc2cccc(-c3nnn[nH]3)c2)sc1-c1ccc(Cl)cc1	6.08 µM and 5.66 µM
O=C(Nc1ccc2c(c1)CNC2)c1cc(F)c2[nH]c(=O)[nH]c2c1	> 99.5 µM
O=Cc1ccc(N2CCC(C(=O)N3CCN(CCc4ccccc4)CC3)CC2)cc1	35.6 µM
O=C1C[C@H]2CN(C(=O)Nc3ccc4c(c3)CNC4)CC[C@H]2N1	> 99.5 µM
CC(C)[C@H]1C(=O)O[C@@H]1C(=O)O	> 99.5 µM
CSCc1nnc(SCc2ccncc2)o1	> 99.5 µM
CC(C)[C@H](NC(=O)[C@@H]1CCCN1C(=O)OCc1ccccc1)P(=O)(Oc1ccc(F)cc1)Oc1ccc(F)cc1	> 99.5 µM
Cc1cc(NC(=O)c2cc(C3CC3)n(C)c2C)cnc1N1CCCCC1	> 99.5 µM
Clc1ccc2[nH]ncc2c1[C@@H]1C[C@H]1c1ccc2c(c1)CNC2	> 99.5 µM
O=C(Nc1cc(Cl)cc(C(=O)Nc2ccc3c(c2)CNCC3)c1)OCc1ccccc1	57.8 µM
Cc1cc(C(=O)Nc2cc(-c3cccnc3)ccn2)nn1CCN	> 99.5 µM
